Data taken from ChEMBL document CHEMBL1201862, “PubChem BioAssay data set” (2004).
The source made the active and inactive calls.

Assays:
[1] = target: T1, Apoptotic protease-activating factor 1 (Homo sapiens, UniProt O14727); assay type: functional
T1 sequence (O14727 whole entry): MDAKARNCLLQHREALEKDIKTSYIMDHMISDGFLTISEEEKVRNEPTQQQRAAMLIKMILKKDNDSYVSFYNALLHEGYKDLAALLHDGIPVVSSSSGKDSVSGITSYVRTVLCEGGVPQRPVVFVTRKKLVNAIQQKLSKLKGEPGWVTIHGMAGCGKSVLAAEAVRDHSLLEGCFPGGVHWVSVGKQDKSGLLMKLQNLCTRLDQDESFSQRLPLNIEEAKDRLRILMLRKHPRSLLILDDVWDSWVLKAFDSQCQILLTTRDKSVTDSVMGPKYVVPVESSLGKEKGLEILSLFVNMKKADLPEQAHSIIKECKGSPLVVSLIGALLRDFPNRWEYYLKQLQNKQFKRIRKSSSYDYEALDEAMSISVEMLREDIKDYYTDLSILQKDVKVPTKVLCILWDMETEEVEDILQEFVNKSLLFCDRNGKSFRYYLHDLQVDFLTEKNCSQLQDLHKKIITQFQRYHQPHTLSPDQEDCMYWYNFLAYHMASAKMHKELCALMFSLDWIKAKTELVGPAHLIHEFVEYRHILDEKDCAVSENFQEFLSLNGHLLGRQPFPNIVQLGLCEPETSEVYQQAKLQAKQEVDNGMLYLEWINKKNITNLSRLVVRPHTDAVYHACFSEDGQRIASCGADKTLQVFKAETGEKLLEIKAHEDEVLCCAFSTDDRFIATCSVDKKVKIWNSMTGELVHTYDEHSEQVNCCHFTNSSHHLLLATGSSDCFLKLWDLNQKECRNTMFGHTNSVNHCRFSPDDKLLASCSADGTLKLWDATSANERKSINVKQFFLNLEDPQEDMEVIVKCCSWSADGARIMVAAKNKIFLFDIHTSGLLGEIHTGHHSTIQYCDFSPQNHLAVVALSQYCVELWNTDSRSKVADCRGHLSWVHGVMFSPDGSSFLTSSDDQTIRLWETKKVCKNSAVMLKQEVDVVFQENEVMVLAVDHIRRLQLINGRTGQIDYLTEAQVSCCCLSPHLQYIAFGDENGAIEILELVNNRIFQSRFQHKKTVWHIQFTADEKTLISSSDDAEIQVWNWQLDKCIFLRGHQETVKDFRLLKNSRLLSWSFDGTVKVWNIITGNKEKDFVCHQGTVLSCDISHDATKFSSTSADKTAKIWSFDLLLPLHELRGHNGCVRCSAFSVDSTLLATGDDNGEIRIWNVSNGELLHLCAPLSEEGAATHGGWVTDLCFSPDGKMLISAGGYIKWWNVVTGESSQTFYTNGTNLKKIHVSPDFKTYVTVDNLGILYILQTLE

[2] = target: T2, Replicative DNA helicase DnaB (Mycobacterium tuberculosis, UniProt P9WMR3); experiment: DnaB intein splicing inhibitors, dose response, biochemical, cell-free fluorescence (AID 449749); assay type: functional
T2 sequence (P9WMR3 whole entry): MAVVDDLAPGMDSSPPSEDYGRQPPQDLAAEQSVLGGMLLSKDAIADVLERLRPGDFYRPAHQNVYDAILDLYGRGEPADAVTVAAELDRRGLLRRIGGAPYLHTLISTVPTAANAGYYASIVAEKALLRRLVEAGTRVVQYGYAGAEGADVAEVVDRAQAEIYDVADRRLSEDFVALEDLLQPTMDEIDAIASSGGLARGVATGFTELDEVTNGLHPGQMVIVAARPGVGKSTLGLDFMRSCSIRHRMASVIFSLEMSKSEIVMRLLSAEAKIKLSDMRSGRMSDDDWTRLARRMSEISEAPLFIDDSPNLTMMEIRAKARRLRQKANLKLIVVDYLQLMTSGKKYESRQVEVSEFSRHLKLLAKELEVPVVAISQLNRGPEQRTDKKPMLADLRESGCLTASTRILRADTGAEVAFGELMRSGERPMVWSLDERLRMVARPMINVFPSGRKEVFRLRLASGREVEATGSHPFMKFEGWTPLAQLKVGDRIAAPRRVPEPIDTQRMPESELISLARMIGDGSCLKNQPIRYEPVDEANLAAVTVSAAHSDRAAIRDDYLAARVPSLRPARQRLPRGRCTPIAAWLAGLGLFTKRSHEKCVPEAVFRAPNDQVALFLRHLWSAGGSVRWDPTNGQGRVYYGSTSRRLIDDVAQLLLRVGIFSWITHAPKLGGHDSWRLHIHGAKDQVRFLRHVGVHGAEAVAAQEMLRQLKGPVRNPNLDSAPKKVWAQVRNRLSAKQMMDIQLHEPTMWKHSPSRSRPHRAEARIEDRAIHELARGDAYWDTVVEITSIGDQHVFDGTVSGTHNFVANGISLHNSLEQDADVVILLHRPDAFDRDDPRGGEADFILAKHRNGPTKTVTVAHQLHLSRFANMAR

[3] = target: T3, Tyrosyl-DNA phosphodiesterase 2 (Homo sapiens, UniProt O95551); experiment: potency against TDP2 phosphodiesterase activity – biochemical, epi absorbance, IC50, dose response (AID 743297)
T3 sequence (O95551 whole entry): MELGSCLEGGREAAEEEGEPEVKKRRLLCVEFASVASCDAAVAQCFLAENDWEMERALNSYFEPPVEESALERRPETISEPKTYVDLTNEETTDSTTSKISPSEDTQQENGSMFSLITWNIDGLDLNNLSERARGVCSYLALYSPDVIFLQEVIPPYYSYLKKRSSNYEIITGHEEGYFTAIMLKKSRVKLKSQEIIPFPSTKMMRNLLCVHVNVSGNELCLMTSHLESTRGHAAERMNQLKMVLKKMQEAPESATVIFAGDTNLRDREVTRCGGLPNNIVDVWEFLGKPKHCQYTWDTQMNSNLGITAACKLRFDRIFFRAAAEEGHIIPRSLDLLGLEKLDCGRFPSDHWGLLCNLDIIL

| SMILES | IC50 [1] | AC50 [2] | IC50 [3] |
| --- | --- | --- | --- |
| Cc1ccc(S(=O)(=O)/N=C2\C=C(Nc3cccc(C(=O)O)c3)C(=O)c3ccccc32)cc1 | 7.32 µM (active) | 0.516 µM (active) | 3.18 µM (active) |
| Cc1ccc(C(=O)NC2(O)C(=O)c3ccccc3C2=O)cc1C | 5.13 µM (active) | 6.24 µM (active) | 5.74 µM (active) |
| O=[N+]([O-])c1c(Nc2ccccn2)cc(Cl)c2nonc12 |  | 1.79 µM (active) | 99.4 µM (inactive) |
| CC[C@@H](C)[C@H](CNC)NC[C@@H](Cc1cccc2ccccc12)NCCc1cccc(C(F)(F)F)c1 | 44.1 µM (active) |  |  |
